From US20070135509A1, “Indolone compounds useful to treat cognitive impairment” (priority 2005, published 2007)

Key:
[1] = tested on: C57BL/6 mice; assay: Contextual fear conditioning (contextual memory, freezing to context); format: in vivo; conditions: for 24 h contextual memory (freezing) / freezing to context 24 hr after training: mean±SEM; for 24 h contextual memory (freezing): controls 22.3±3.2%; for freezing to context 24 hr after training: controls 24.5±3.2%
From the text: Contextual Memory. Contextual memory is a form of Pavlovian fear conditioning in which a naïve mouse is placed into a novel chamber (context) containing distinct visual, olfactory and tactile cues. After a few seconds of acclimation, the mouse receives a brief, mild electric shock to its feet. From this negative experience, the mouse will remember for months that that chamber is dangerous. When placed back into the same context at some later time after training, the mouse's natural response to danger is to “freeze,” sitting stone still for many seconds. This is similar to what happens to humans when they experience fear. The percent of time during an observation period that the mouse spends frozen represents a quantitative measure (memory score) of its memory of the context.
(§1) Subjects. Young-adult (10-12 weeks old) C57B1/6 male mice (Taconic, N.Y.) were used. The mice were housed (5 mice) in standard laboratory cages and maintained on a 12:12 light-dark cycle. The experiments were always conducted during the light phase of the cycle. The day before the initiation of the experiment, mice were housed single in individual cages and maintained so until the end of the experiment. With the exception of testing times, the mice had liberal access to food and water. The experiments were conducted in accordance with Animal Welfare Assurance #A3280-01. Animals were maintained in accordance with the Animal Welfare Act and Department of Health and Human Services Guide.
Contextual Conditioning Training and Testing. To assess contextual memory, a standardized contextual fear conditioning task originally developed for evaluation of memory in cyclic AMP response element binding protein (“CREB”) knock-out mice was used (Bourtchouladze et al., 1994). On the training day, the mouse was placed into the conditioning chamber (Med Associates, Inc., VA) for 2 minutes before the onset of unconditioned stimulus (US), 0.5 mA, of 2 second foot shock. The US was repeated two times with a 1 min inter-trial interval between shocks. Training was performed by automated software package (Med Associates, Inc., VA). After the last training trial, the mice were left in the conditioning chamber for another 30 seconds and were then placed back in their home cages. 24 hours after training, the mouse was placed into the same training chamber and contextual memory was assessed by scoring freezing behavior (‘freezing’ serves as memory score). Freezing was defined as the complete lack of movement in intervals of 5 seconds (Kim et al., 1993; Phillips & LeDoux, 1992; Bourtchouladze et al., 1994; 1998; Abel et al., 1997). Total testing time lasted 3 minutes. After each experimental subject, the experimental apparatus was thoroughly cleaned with 75% ethanol, water, dried, and ventilated for a few minutes.
Contextual Conditioning Data Analysis. All experiments were designed and performed in a balanced fashion, meaning that (i) for each experimental condition (e.g. a specific dose-effect) we used an equal number of experimental and control mice; (ii) each experimental condition was replicated 2-3 independent times, and replicate days were added to generate final number of subjects. The proceeding of each experiment was filmed. In each experiment, the experimenter was unaware (blind) to the treatment of the subjects during training and testing. Data were analyzed by Student's unpaired t test using a software package (Statwiew 5.0.1; SAS Institute, Inc). All values in the text and figures are expressed as mean±SEM.
Drug Compound Administration. Compound 2 was freshly prepared from a stock solution (10 mg/ml DMSO), which was maintained at 4° C. Compound 2 was dissolved in a suspension of 5% DMSO and 95% CMC at 2% in water and administered intraperitoneally (I.P.) at doses 5 mg/kg; 10 mg/kg and 30 mg/kg 20 min before training or at 1 mg/kg and 30 mg/kg orally 60 min before training. Control animals received vehicle alone (5% DMSO and 95% CMC at 2% in water). […]

[2] = tested on: C57BL/6 mice; assay: Object recognition (novel object recognition memory); format: in vivo; conditions: for Discrimination Index (DI), 24 hour object recognition: mean±SEM, vehicle -10.2±4
From the text: Object Recognition. […] This task relies on the natural curiosity of rodents to explore novel objects in their environments more than familiar ones. Obviously, for an object to be “familiar,” the animal must have attended to it before and remembered that experience.
During training, a mouse is presented with two identical, novel objects. Mice explore them equally by approaching, sniffing and crawling over them. During testing, the animal is presented with the training object and a second, novel one. Memory of the training object renders it familiar to the animal, and it then spends more time exploring the new novel object rather than the familiar one (Bourtchouladze t al., 2003). […] Consistent with these findings, rats with the PFC lesions show poor working memory when they are required to discriminate between familiar and novel objects (Mitchell, 1998).
as §1
Object Recognition Training and Testing. […]
Object Recognition Data Analysis. […] Types were reviewed by a blinded observer and the following behavioral parameters were determined: time of exploration of an each object; the total time of exploration of the objects; number of approaches to the objects; and time (latency) to first approach to an object. The discrimination index—memory score—was determined as described previously (Ennaceur et al., 1997, Bourtchouladze et al., 2003). […] All values in the text and figures are expressed as mean±SEM. […]

With O=C1C(=Nc2cccc(C(F)(F)F)c2)c2ccccc2N1c1ccccc1 [Compound 2, 1-PHENYL-3-[[3-(TRIFLUOROMETHYL)PHENYL]IMINO]-1,3-DIHYDRO-2H-INDOL-2-ONE] the “24 h contextual memory (freezing)” value ([1]; 1 mg/kg oral 60 min before training, p<0.01) was 36.4±3.9%, the “freezing to context 24 hr after training” value ([1]; 5 mg/kg I.P. 20 min before training, p<0.05) was 40.3±4.7% and the “Effects on contextual memory in mice (FIG. 1)” value ([1]; 5 mg/kg, 10 mg/kg and 30 mg/kg i.p., 24 hours after training) was “significantly facilitated freezing to context”. The “freezing to context 24 hr after training” value ([1]; 10 mg/kg I.P. 20 min before training, p<0.01) was 51.4±9.1%, the “freezing to context 24 hr after training” value ([1]; 30 mg/kg I.P. 20 min before training, p<0.001) was 49.1±3.7% and the “24 h contextual memory (freezing)” value ([1]; 30 mg/kg oral 60 min before training, p<0.05) was 34.1±4.3%. For the same compound, the “Effects on contextual memory in mice (FIG. 2)” value ([1]; single dose of 1 mg/kg or 30 mg/kg orally, 24 hr) was “significantly enhanced 24 hr contextual memory”, the “Effect on object recognition memory in mice (FIG. 3)” value ([2]; 1 mg/kg and 5 mg/kg i.p. twenty (20) minutes before training, C57BL/6 mice) was “ameliorated long-term memory deficit” and the “Discrimination Index (DI), 24 hour object recognition” value ([2]; 1 mg/kg i.p. 20 minutes before 15-minute training, p<0.05) was 5.1±6. The “Discrimination Index (DI), 24 hour object recognition” value ([2]; 5 mg/kg i.p. 20 minutes before 15-minute training, p<0.0005) was 18.8±6.6.
